Earlier results on 3 compounds are cited in patent US9682109B2, “Antiviral resistance mutants and applications thereof” (ABL SA, priority 2005, dated 2017).

In data set [1] the test system is HBV.
For data set [2], the system named is wild-type and lamivudine-resistant strains of HBV.
Data set [3] deals with HBV. As to conditions: 30 mg daily dose, over 12 weeks, phase II studies (Heathcote et al 1998).

Structures can show the parent of a compound that is named as a salt.

Take `Nc1nc(=O)n([C@@H]2CS[C@H](CO)O2)cc1F` [FTC, (−)-β-L-2′-3′-dideoxy-5-fluoro-3′-thiacydidine]: the “antiviral activity against HBV” value in the data set on HBV [1] was “activity”. The “antiviral activity against HIV” value in the data set on HIV is on record as “activity”.
For `CC(C)OC(=O)OCOP(=O)(CO[C@H](C)Cn1cnc2c(N)ncnc21)OCOC(=O)OC(C)C` [TFV, tenofovir disoproxil fumarate], the “antiviral activity against HBV” value in the data set with HBV [1] is “antiviral activity”. In addition, in the data set on HIV, the “antiviral activity against HIV” value is listed as “antiviral activity”.
Take `CC(C)(C)C(=O)OCOP(=O)(COCCn1cnc2c(N)ncnc21)OCOC(=O)C(C)(C)C` [ADV, adefovir dipivoxil]: in the data set on HBV replication, the “inhibitor of HBV replication” value is on record as “potent inhibitor”. In data set [2], the clinical activity result is “demonstrated clinical activity”. Besides, in the data set with HBV [3], the “mean decrease in viremia” value was 4 log10.
